# Measured values as given in publication PMC8364251 (Pharmacological Research, 2021).
# How the values were obtained:
# Format in all cases: cell-based, SARS-CoV-2
# [1] = tested on: N501Y mutant S-pseudotyped lentivirus
# [2] = tested on: Y453F mutant S-pseudotyped lentivirus
# [3] = tested on: N439K mutant S-pseudotyped lentivirus
compound,measurement,setting,value
"O=C(O[C@@H]1Cc2c(O)cc(O)cc2O[C@@H]1c1cc(O)c(O)c(O)c1)c1cc(O)c(O)c(O)c1 [EGCG, epigallocatechin gallate]",inhibition of mutant pseudovirus infection,[1],effectively inhibited the infection of all mutants
same,inhibition of mutant pseudovirus infection,[2],effectively inhibited the infection of all mutants
same,inhibition of mutant pseudovirus infection,[3],effectively inhibited the infection of all mutants
